For orientation: pIC50 means −log10 of the IC50, conventionally taken in molar units.

pIC50: −log10 of the molar value.

This assay has as its target Glutamate NMDA receptor. The experiment in a line: Compound was evaluated for its ability to displace […] binding for NMDA receptor. It is filed as protein-complex assay.
`O=C(O)C1CN(CCCP(=O)(O)O)CCN1` (stereo not drawn) had a pIC50 of 7.55.

`O=C(O)[C@@H]1C[C@H](CP(=O)(O)O)CCN1` [SELFOTEL]: the pIC50 was 7.62. This pIC50 and that of the molecule before are within 0.2 log units of each other.

In turn, `NC(CC(CP(=O)(O)O)S(=O)O)C(=O)O` (stereo not drawn) gave a pIC50 of 6.62.

Consider `NC(CCCP(=O)(O)O)CC(N)C(=O)O` (stereo not drawn), for which the pIC50 is 5.64.

With `O=C(O)C1CC(CP(=O)(O)O)N=CN1` (stereo not drawn), the negative logarithm of the IC50 (pIC50) is 5.23.

On to `NC(CC(N)C(=O)O)CP(=O)(O)O` (stereo not drawn), for which the pIC50 was 5.84. Compared with the last molecule, the pIC50 is 0.61 log units higher.

As for `O=C(O)C1CC(CCCP(=O)(O)O)N=CN1` (stereo not drawn), the pIC50 was 6.38.

As to `NC(CC(O)CP(=O)(O)O)C(=O)O` (stereo not drawn), the pIC50 was 6.89.

The values are drawn from ChEMBL document CHEMBL1150499, “Excitatory amino acids: 6-phosphonomethyltetrahydro-4-pyrimidinecarboxylic acids and their acyclic analogues are competitive N-methyl-D-aspartic acid receptor antagonists” (Bioorg Med Chem Lett, 1992).
